Data: US10517889B2, “Modulators of SMAD7 expression” (Ionis Pharmaceuticals, Inc., priority 2017, dated 2019)
Strand notation (5' to 3'): a small letter for the sugar, then the base; units joined by * are phosphorothioate-linked, units joined directly phosphodiester-linked; [ ] holds rarer units or linkages, { } end groups; capitals alone tell only the bases. k = constrained ethyl (cEt); [5mC] = 5-methylcytosine; d = 2'-deoxy (DNA)

Tested on: human SMAD7 mRNA
Test: Antisense inhibition of human SMAD7 mRNA expression in Hep3B cells by 3-10-3 cEt gapmers, 10,000 nM, electroporation (Example 2)
Assay type: cell-based
Conditions: SMAD7 mRNA, Hep3B cells, electroporation with 10,000 nM antisense oligonucleotide, approximately 24 hours, primer probe set RTS5062, relative to untreated control cells
In short: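 Hep3B cells (20,000/well) were electroporated with 10,000 nM 3-10-3 cEt gapmer (16-mer, phosphorothioate, 5-methylcytosines) and harvested after about 24 h. SMAD7 mRNA quantified by RT-qPCR with primer probe set RTS5062, normalized to total RNA by RiboGreen; percent inhibition relative to untreated cells.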

Substance	% Inhibition [%]
829808 (kG*kG*kA*dG*dA*d[5mC]*dT*d[5mC]*dT*dA*dG*dT*dT*k[5mC]*kG*k[5mC]; antisense) [compound 829808]	53
829809 (kG*kG*kG*dA*dG*dA*d[5mC]*dT*d[5mC]*dT*dA*dG*dT*kT*k[5mC]*kG; antisense) [compound 829809]	51
829810 (kA*kT*k[5mC]*dG*dG*dG*dT*dA*dT*d[5mC]*dT*dG*dG*kA*kG*kT; antisense) [compound 829810]	29
829811 (kT*k[5mC]*k[5mC]*dA*dT*d[5mC]*dG*dG*dG*dT*dA*dT*d[5mC]*kT*kG*kG; antisense) [compound 829811]	0
829814 (kG*kT*k[5mC]*dT*dG*d[5mC]*dA*dG*dT*dT*dG*dG*dT*kT*kT*kG; antisense) [compound 829814]	94
829822 (kT*kG*kT*dT*dT*d[5mC]*dA*dG*d[5mC]*dG*dG*dA*dG*kG*kA*kA; antisense) [compound 829822]	43
829829 (kT*k[5mC]*kT*dG*dA*dA*dA*dG*d[5mC]*d[5mC]*d[5mC]*d[5mC]*d[5mC]*k[5mC]*kA*kG; antisense) [compound 829829]	11
829830 (kA*kA*kT*d[5mC]*dT*dG*dA*dA*dA*dG*d[5mC]*d[5mC]*d[5mC]*k[5mC]*k[5mC]*k[5mC]; antisense) [compound 829830]	36
829831 (kG*kA*k[5mC]*d[5mC]*dG*dA*dT*d[5mC]*d[5mC]*d[5mC]*d[5mC]*dA*dG*kG*k[5mC]*kT; antisense) [compound 829831]	9
829832 (kT*kG*kA*d[5mC]*d[5mC]*dG*dA*dT*d[5mC]*d[5mC]*d[5mC]*d[5mC]*dA*kG*kG*k[5mC]; antisense) [compound 829832]	51
829833 (kG*kT*kG*dA*d[5mC]*d[5mC]*dG*dA*dT*d[5mC]*d[5mC]*d[5mC]*d[5mC]*kA*kG*kG; antisense) [compound 829833]	0
829834 (kG*kT*kG*dT*dG*dA*d[5mC]*d[5mC]*dG*dA*dT*d[5mC]*d[5mC]*k[5mC]*k[5mC]*kA; antisense) [compound 829834]	29
829835 (k[5mC]*kA*kG*dT*dG*dT*dG*dA*d[5mC]*d[5mC]*dG*dA*dT*k[5mC]*k[5mC]*k[5mC]; antisense) [compound 829835]	52
829836 (k[5mC]*k[5mC]*kA*dG*dT*dG*dT*dG*dA*d[5mC]*d[5mC]*dG*dA*kT*k[5mC]*k[5mC]; antisense) [compound 829836]	48
829837 (k[5mC]*k[5mC]*kA*dG*dT*dA*dT*dG*d[5mC]*d[5mC]*dA*d[5mC]*d[5mC]*kA*k[5mC]*kG; antisense) [compound 829837]	16
829838 (k[5mC]*k[5mC]*k[5mC]*dA*dG*dT*dA*dT*dG*d[5mC]*d[5mC]*dA*d[5mC]*k[5mC]*kA*k[5mC]; antisense) [compound 829838]	28
829839 (kA*k[5mC]*kA*d[5mC]*dA*dG*dT*dA*dG*dA*dG*d[5mC]*d[5mC]*kT*k[5mC]*k[5mC]; antisense) [compound 829839]	8
829840 (kG*kG*kA*d[5mC]*dA*d[5mC]*dA*dG*dT*dA*dG*dA*dG*k[5mC]*k[5mC]*kT; antisense) [compound 829840]	0
829841 (kT*kG*kG*dA*d[5mC]*dA*d[5mC]*dA*dG*dT*dA*dG*dA*kG*k[5mC]*k[5mC]; antisense) [compound 829841]	50
829842 (k[5mC]*k[5mC]*kG*dA*dG*dG*d[5mC]*dA*dA*dA*dA*dG*d[5mC]*k[5mC]*kA*kT; antisense) [compound 829842]	26

Substance	% Inhibition [%]
829843 (antisense kG*kA*kA*dT*dT*dG*dA*dG*d[5mC]*dT*dG*dT*d[5mC]*k[5mC]*kG*kA) [compound 829843]	49
829844 (antisense k[5mC]*kG*kA*dA*dT*dT*dG*dA*dG*d[5mC]*dT*dG*dT*k[5mC]*k[5mC]*kG) [compound 829844]	49
829845 (antisense kT*k[5mC]*k[5mC]*dG*dA*dA*dT*dT*dG*dA*dG*d[5mC]*dT*kG*kT*k[5mC]) [compound 829845]	40
829846 (antisense kG*kT*k[5mC]*d[5mC]*dG*dA*dA*dT*dT*dG*dA*dG*d[5mC]*kT*kG*kT) [compound 829846]	29
829847 (antisense kT*kG*kT*d[5mC]*d[5mC]*dG*dA*dA*dT*dT*dG*dA*dG*k[5mC]*kT*kG) [compound 829847]	64
829848 (antisense kT*kT*kG*dT*d[5mC]*d[5mC]*dG*dA*dA*dT*dT*dG*dA*kG*k[5mC]*kT) [compound 829848]	47
829849 (antisense kT*kG*kT*dT*dG*dT*d[5mC]*d[5mC]*dG*dA*dA*dT*dT*kG*kA*kG) [compound 829849]	49
829850 (antisense kT*kT*kG*dT*dT*dG*dT*d[5mC]*d[5mC]*dG*dA*dA*dT*kT*kG*kA) [compound 829850]	36
829851 (antisense k[5mC]*kT*kT*dG*dT*dT*dG*dT*d[5mC]*d[5mC]*dG*dA*dA*kT*kT*kG) [compound 829851]	31
829852 (antisense kT*k[5mC]*kT*dT*dG*dT*dT*dG*dT*d[5mC]*d[5mC]*dG*dA*kA*kT*kT) [compound 829852]	33
829853 (antisense kA*k[5mC]*kT*d[5mC]*dT*dT*dG*dT*dT*dG*dT*d[5mC]*d[5mC]*kG*kA*kA) [compound 829853]	42
829854 (antisense kG*k[5mC]*kT*dG*dA*d[5mC]*dT*d[5mC]*dT*dT*dG*dT*dT*kG*kT*k[5mC]) [compound 829854]	25
829855 (antisense kA*kG*k[5mC]*dT*dG*dA*d[5mC]*dT*d[5mC]*dT*dT*dG*dT*kT*kG*kT) [compound 829855]	0
829856 (antisense kA*k[5mC]*k[5mC]*dA*dG*d[5mC]*dT*dG*dA*d[5mC]*dT*d[5mC]*dT*kT*kG*kT) [compound 829856]	41
829857 (antisense kT*kG*k[5mC]*dA*d[5mC]*d[5mC]*dA*dG*d[5mC]*dT*dG*dA*d[5mC]*kT*k[5mC]*kT) [compound 829857]	31
829858 (antisense kT*kG*k[5mC]*dT*d[5mC]*d[5mC]*dG*d[5mC]*dA*d[5mC]*d[5mC]*dT*dT*k[5mC]*kT*kG) [compound 829858]	59
829859 (antisense kT*kT*kT*dT*dG*d[5mC]*dT*d[5mC]*d[5mC]*dG*d[5mC]*dA*d[5mC]*k[5mC]*kT*kT) [compound 829859]	39
829860 (antisense kG*kT*k[5mC]*dA*dG*d[5mC]*dT*dG*dG*dA*dT*dG*d[5mC]*k[5mC]*kG*k[5mC]) [compound 829860]	31
829861 (antisense k[5mC]*k[5mC]*kA*dT*d[5mC]*d[5mC]*dA*d[5mC]*d[5mC]*dT*d[5mC]*d[5mC]*d[5mC]*kG*k[5mC]*kG) [compound 829861]	35
829862 (antisense k[5mC]*kT*kG*d[5mC]*dT*dG*d[5mC]*dG*dG*dT*dT*dG*dT*kA*k[5mC]*kA) [compound 829862]	22
